Assay results published in patent US20220064195A1, “SYNTHETIC I2 IMIDAZOLINE RECEPTOR LIGANDS FOR PREVENTION OR TREATMENT OF HUMAN BRAIN DISORDERS” (Universitat de Barcelona, priority 2018, published 2022).
Several values for one entry are separate records, joined by “and”; a condition that tells them apart may be missing. Equal entries are not always repeated.

Legend:
[1] = for CNS Prediction: predictive penetration in the CNS from PAMPA-BBB Pe
Method: (§1) To evaluate the brain penetration of the different compounds, a parallel artificial membrane permeation assay for blood-brain barrier was used, following the method described by Di et al. (cf. Table 2). The in vitro permeability (Pe) of fourteen commercial drugs through lipid extract of porcine brain membrane together with the test compounds were determined. Commercial drugs and assayed compounds were tested using a mixture of PBS:EtOH (70:30).

[2] = in vitro; settings: pig, PAMPA
Method: as §1

[3] = molecular target: I2-IR; assay: Competition binding against the selective I2-IR radioligand [3H]-2-BFI in membranes from post-mortem human frontal cortex; settings: for [^3H]-2-BFI I2 binding affinity (pKi): membranes from post-mortem human frontal cortex, radioligand [3H]-2-BFI

Compound | CNS Prediction [1] | Papp [2] | [^3H]-2-BFI I2 binding affinity (pKi) [3] | Selectivity I2/α2 [3] | Permeability (Pe) Experimental value ± SD (n = 3) ([1]; PAMPA-BBB, PBS:EtOH (70:30), three experiments in triplicate)
CCOP(=O)(OCC)[C@@]1(Cc2ccccc2)N=C[C@H]2C(=O)N(C3CCCCC3)C(=O)[C@H]21 (racemic) [Compound I-57, Diethyl (1RS,3aSR,6aSR)-1-benzyl-5-cyclohexyl-4,6-dioxo-1,3a,4,5,6,6a-hexahydropyrrolo[3,4-c]pyrrole-1-phosphonate] | CNS+/− (compounds of uncertain BBB permeation (CNS+/−): 5,179>Pe (10^−6 cm s^−1)>2,083) | 5.1 ± 0.01 ×10⁻⁶ cm/s |  |  | 
CCOP(=O)(OCC)[C@]1(c2ccccc2)N=C[C@H]2C(=O)N(c3ccc(Oc4ccccc4)cc3)C(=O)[C@H]21 (racemic) [Compound I-34, Diethyl (1RS,3aSR,6aSR)-4,6-dioxo-5-(4-phenoxyphenyl)-1-phenyl-1,3a,4,5,6,6a-hexahydropyrrolo[3,4-c]pyrrole-1-phosphonate] | CNS+ (compounds of high BBB permeation (CNS+): Pe (10^−6 cm s^−1)>5,179) | 6.5 ± 0.02 ×10⁻⁶ cm/s | 6.96 ± 0.30 |  | 
CCOP(=O)(OCC)[C@]1(c2ccccc2)N=C[C@H]2C(=O)N(CCc3ccc(F)cc3)C(=O)[C@H]21 (racemic) [Compound I-36, Diethyl (1RS,3aSR,6aSR)-5-(4-fluorophenethyl)-4,6-dioxo-1-phenyl-1,3a,4,5,6,6a-hexahydropyrrolo[3,4-c]pyrrole-1-phosphonate] | CNS+ (compounds of high BBB permeation (CNS+): Pe (10^−6 cm s^−1)>5,179) | 7.2 ± 0.45 ×10⁻⁶ cm/s |  |  | 
CCOP(=O)(OCC)[C@]1(c2ccccc2)N=C[C@H]2C(=O)N(c3cccc(C(F)(F)F)c3)C(=O)[C@H]21 (racemic) [Compound I-52, Diethyl (1RS,3aSR,6aSR)-4,6-dioxo-1-phenyl-5-[3-(trifluoromethyl)phenyl]-1,3a,4,5,6,6a-hexahydropyrrolo[3,4-c]pyrrole-1-phosphonate] | CNS+ (compounds of high BBB permeation (CNS+): Pe (10^−6 cm s^−1)>5,179) | 6.9 ± 0.2 ×10⁻⁶ cm/s |  |  | 
CCOP(=O)(OCC)[C@]1(c2ccccc2)N=C[C@H]2C(=O)N(c3ccccc3)C(=O)[C@H]21 (racemic) [Compound I-16, Diethyl (1RS,3aSR,6aSR)-4,6-dioxo-1,5-diphenyl-1,3a,4,5,6,6a-hexahydropyrrolo[3,4-c]pyrrole-1-phosphonate] | CNS+ (compounds of high BBB permeation (CNS+): Pe (10^−6 cm s^−1)>5,179) | 7.8 ± 0.6 ×10⁻⁶ cm/s | 10.28 ± 0.37 |  | 
CCOP(=O)(OCC)[C@]1(c2ccccc2)N=C[C@H]2C(=O)N(c3ccc(Cl)cc3)C(=O)[C@H]21 (racemic) [Compound I-49, Diethyl (1RS,3aSR,6aSR)-5-(4-chlorophenyl)-4,6-dioxo-1-phenyl-1,3a,4,5,6,6a-hexahydropyrrolo[3,4-c]pyrrole-1-phosphonate] | CNS+ (compounds of high BBB permeation (CNS+): Pe (10^−6 cm s^−1)>5,179) | 5.5 ± 0.03 ×10⁻⁶ cm/s |  |  | 
CCOP(=O)(OCC)[C@]1(c2ccccc2)N=C[C@H]2C(=O)N(c3ccc(F)cc3)C(=O)[C@H]21 (racemic) [Compound I-37, Diethyl (1RS,3aSR,6aSR)-5-(4-fluorophenyl)-4,6-dioxo-1-phenyl-1,3a,4,5,6,6a-hexahydropyrrolo[3,4-c]pyrrole-1-phosphonate] | CNS+/− (compounds of uncertain BBB permeation (CNS+/−): 5,179>Pe (10^−6 cm s^−1)>2,083) | 3.2 ± 0.2 ×10⁻⁶ cm/s |  |  | 
CCOP(=O)(OCC)[C@]1(c2ccccc2)N=C[C@H]2C(=O)N(C3CCCCC3)C(=O)[C@H]21 (racemic) [Compound I-07, Diethyl (1RS,3aSR,6aSR)-5-cyclohexyl-4,6-dioxo-1-phenyl-1,3a,4,5,6,6a-hexahydropyrrolo[3,4-c]pyrrole-1-phosphonate] | CNS+ (compounds of high BBB permeation (CNS+): Pe (10^−6 cm s^−1)>5,179) | 25.9 ± 0.6 ×10⁻⁶ cm/s | 9.74 ± 0.29 |  | 
c1ccc2c(c1)OCC(C1=NCCN1)O2 (centres unmarked) [Idazoxan, reference compound] |  |  | 7.27±0.07 and 7.41 ± 0.63 |  | 
CCOP(=O)(OCC)[C@]1(c2ccccc2)N=C[C@H]2C(=O)N(CCc3ccccc3)C(=O)[C@H]21 (racemic) [Compound I-33, Diethyl (1RS,3aSR,6aSR)-4,6-dioxo-5-phenethyl-1-phenyl-1,3a,4,5,6,6a-hexahydropyrrolo[3,4-c]pyrrole-1-phosphonate] | CNS+ (compounds of high BBB permeation (CNS+): Pe (10^−6 cm s^−1)>5,179) | 6.2 ± 0.3 ×10⁻⁶ cm/s | 5.85 ± 0.18 | 182 | 
CCn1cc(C(=O)O)c(=O)c2cc(F)c(N3CCNCC3)cc21 [norfloxacine, reference compound] |  |  |  |  | 0.90 ± 0.02 10−6 cm s^−1
CCOP(=O)(OCC)[C@@]1(Cc2ccccc2)N=C[C@H]2C(=O)N(c3ccccc3)C(=O)[C@H]21 (racemic) [Compound I-46, Diethyl (1RS,3aSR,6aSR)-1-benzyl-4,6-dioxo-5-phenyl-1,3a,4,5,6,6a-hexahydropyrrolo[3,4-c]pyrrole-1-phosphonate] | CNS+ (compounds of high BBB permeation (CNS+): Pe (10^−6 cm s^−1)>5,179) | 6.9 ± 0.3 ×10⁻⁶ cm/s |  |  | 
CCOP(=O)(OCC)[C@]1(c2ccccc2)N=C[C@H]2C(=O)N(c3cccc4ccccc34)C(=O)[C@H]21 (racemic) [Compound I-56, Diethyl (1RS,3aSR,6aSR)-5-(naphth-1-yl)-4,6-dioxo-1-phenyl-1,3a,4,5,6,6a-hexahydropyrrolo[3,4-c]pyrrole-1-phosphonate] | CNS− (compounds of low BBB permeation (CNS−): Pe (10^−6 cm s^−1)<2,083) | 1.4 ± 0.06 ×10⁻⁶ cm/s |  |  | 
CCOP(=O)(OCC)[C@]1(c2ccccc2)N=C[C@H]2C(=O)N(CC)C(=O)[C@H]21 (racemic) [Compound I-54, Diethyl (1RS,3aSR,6aSR)-5-ethyl-4,6-dioxo-1-phenyl-1,3a,4,5,6,6a-hexahydropyrrolo[3,4-c]pyrrole-1-phosphonate] | CNS+/− (compounds of uncertain BBB permeation (CNS+/−): 5,179>Pe (10^−6 cm s^−1)>2,083) | 3.7 ± 0.5 ×10⁻⁶ cm/s |  |  | 
CCOP(=O)(OCC)[C@]1(c2ccccc2)N=C[C@H]2C(=O)N(C(C)(C)C)C(=O)[C@H]21 (racemic) [Compound I-55, Diethyl (1RS,3aSR,6aSR)-5-(tert-butyl)-4,6-dioxo-1-phenyl-1,3a,4,5,6,6a-hexahydropyrrolo[3,4-c]pyrrole-1-phosphonate] | CNS+ (compounds of high BBB permeation (CNS+): Pe (10^−6 cm s^−1)>5,179) | 6.3 ± 0.3 ×10⁻⁶ cm/s |  |  | 
CCOP(=O)(OCC)[C@]1(c2ccccc2)N=C[C@H]2C(=O)N(c3ccc(C(F)(F)F)cc3)C(=O)[C@H]21 (racemic) [Compound I-38, Diethyl (1RS,3aSR,6aSR)-4,6-dioxo-1-phenyl-5-[4-(trifluoromethyl)phenyl]-1,3a,4,5,6,6a-hexahydropyrrolo[3,4-c]pyrrole-1-phosphonate] | CNS+ (compounds of high BBB permeation (CNS+): Pe (10^−6 cm s^−1)>5,179) | 5.6 ± 0.15 ×10⁻⁶ cm/s |  |  | 
CCOP(=O)(OCC)[C@]1(c2ccccc2)N=C[C@H]2C(=O)N(c3ccc(-c4ccccc4)cc3)C(=O)[C@H]21 (racemic) [Compound I-32, Diethyl (1RS,3aSR,6aSR)-5-(1,1′-biphenyl)-4-yl-4,6-dioxo-1-phenyl-1,3a,4,5,6,6a-hexahydropyrrolo[3,4-c]pyrrole-1-phosphonate] | CNS+ (compounds of high BBB permeation (CNS+): Pe (10^−6 cm s^−1)>5,179) | 8.2 ± 0.3 ×10⁻⁶ cm/s | 7.90 ± 0.46 |  | 
CCOP(=O)(OCC)[C@]1(c2ccccc2)N=C[C@H]2C(=O)N(c3ccc(Cl)c(Cl)c3)C(=O)[C@H]21 (racemic) [Compound I-44, Diethyl (1RS,3aSR,6aSR)-5-(3,4-dichlorophenyl)-4,6-dioxo-1-phenyl-1,3a,4,5,6,6a-hexahydropyrrolo[3,4-c]pyrrole-1-phosphonate] | CNS+ (compounds of high BBB permeation (CNS+): Pe (10^−6 cm s^−1)>5,179) | 8.9 ± 0.3 ×10⁻⁶ cm/s |  |  | 
CCOP(=O)(OCC)[C@]1(c2ccccc2)N=C[C@H]2C(=O)N(c3ccc(OC)cc3)C(=O)[C@H]21 (racemic) [Compound I-22, Diethyl (1RS,3aSR,6aSR)-5-(4-methoxyphenyl)-4,6-dioxo-1-phenyl-1,3a,4,5,6,6a-hexahydropyrrolo[3,4-c]pyrrole-1-phosphonate] | CNS+/− (compounds of uncertain BBB permeation (CNS+/−): 5,179>Pe (10^−6 cm s^−1)>2,083) | 3.9 ± 0.15 ×10⁻⁶ cm/s | 6.65 ± 1.27 |  | 
CCCN1C(=O)[C@@H]2[C@@H](C=N[C@@]2(c2ccccc2)P(=O)(OCC)OCC)C1=O (racemic) [Compound I-51, Diethyl (1RS,3aSR,6aSR)-4,6-dioxo-1-phenyl-5-propyl-1,3a,4,5,6,6a-hexahydropyrrolo[3,4-c]pyrrole-1-phosphonate] | CNS+ (compounds of high BBB permeation (CNS+): Pe (10^−6 cm s^−1)>5,179) | 6.2 ± 0.3 ×10⁻⁶ cm/s |  |  | 
CCOP(=O)(OCC)[C@]1(c2ccccc2)N=C[C@H]2C(=O)N(c3ccc(C)cc3)C(=O)[C@H]21 (racemic) [Compound I-45, Diethyl (1RS,3aSR,6aSR)-4,6-dioxo-1-phenyl-5-(p-tolyl)-1,3a,4,5,6,6a-hexahydropyrrolo[3,4-c]pyrrole-1-phosphonate] | CNS+ (compounds of high BBB permeation (CNS+): Pe (10^−6 cm s^−1)>5,179) | 8.75 ± 0.5 ×10⁻⁶ cm/s |  |  | 
